These results are taken from article PMC2848619, “The Combinatorial PP1-Binding Consensus Motif (R/K)x (0,1)V/IxFxx(R/K)x(R/K) Is a New Apoptotic Signature” (PLoS ONE, 2010).

In one data set the test system is HeLa cells. The data set can be described thus: Quantification of peptide internalization: intracellular delivery of streptavidin-peroxidase (OPD). The class given is cell-based, human. The conditions noted are these: 6 hrs at 37°C, compared with TAT peptide. The method, then: Before incubation, the peptides were preincubated for 1 h with streptavidin HRP conjugate in a 4/1 ratio. Cells at 80% confluence were incubated with different concentrations of peptide in 24-well plates. After 6 h, cells were washed twice in PBS, trypsinized (Trypsin EDTA, Invitrogen) and harvested in 1 ml of PBS and counted. Cells were lysed in 300 µl of 0.1 M Tris pH 7.4, and 0.5% Nonidet P-40 buffer for 10 min on ice. A total of 50 µl of cell lysate was mixed with 50 µl of OPD buffer (51.4 mM Na2HPO4 and 24.3 mM citric acid) then mixed with 100 µl of OPD solution (one OPD tablet from Sigma (St. Louis MO) in 100 ml of OPD buffer to which 40 µl of 30% hydrogen peroxide was added just before use). After 10 to 20 min, the reaction was stopped by adding 100 µl of 1 M HCl, and optical density was read at 490 nm.

Data set [1] has as its system PP1c. As to the kind of experiment: Pull down assay of biotinylated peptides with PP1c from HeLa cell extracts. The conditions noted are these: peptide 100 µM on streptavidin magnetic beads, HeLa cell lysate, 2 h 4°C, western blot with PP1 antibodies. The class given is binding, human. As to the method: Biotinylated peptides were pre-incubated for 2 h at 100 µM (final concentration with lysate) and room temperature with 30 µl of streptavidin-coated immunomagnetic beads (Calbiochem, San Diego CA). During this time, 1×10^6 HeLa cells at 90% of confluence per test peptide were washed with PBS, trypsinized, harvested with PBS, washed with 1 ml of PBS, and centrifuged at 600 g and 4°C for 10 min. Cell pellets were lysed 10 min on ice with 400 µl of lysis buffer (50 mM Tris pH 7.4, 200 mM NaCl, 10 mM EDTA, 20% Glycerol, 1% Nonidet P-40, 1 mM phenylmethylsulfonyl fluoride (PMSF), 10 mM NaF, 1 mM orthovanadate, and “complete mini EDTA free” protease inhibitor cocktail from Roche). Lysates were clarified at 13,000 g for 10 min at 4°C and after rotation with supernatant at 4°C for 2 h, biotinylated peptides were pulled down with streptavidine magnetic beads and washed twice with 750 µl of lysis buffer. Bound proteins and clarified lysates were analyzed by western blotting using PP1 antibodies.

Data set [2] relates to PP1c. The data set can be described thus: PP1c binding of DPT-APAF peptides (abstract only). The conditions noted are these: stated in abstract only.
Data set [3] can be described thus: Apoptotic effect of DPT-APAF peptides (abstract only). The class given is cell-based. The conditions noted are these: stated in abstract only.

Where a SMILES comes first, the peptide text is derived from it. Where no end group is shown, it is not given here. The star is where a group is joined. Biotin = O=C1N[C@H]2[C@H](CS[C@H]2CCCCC(=O)*)N1

As to `CC[C@H](C)[C@H](NC(=O)[C@@H](NC(=O)CNC(=O)[C@H](CCCCN)NC(=O)CCCC[C@@H]1SC[C@@H]2NC(=O)N[C@@H]21)C(C)C)C(=O)N[C@@H](Cc1ccccc1)C(=O)N[C@@H](Cc1ccc(O)cc1)C(=O)N[C@@H](CC(C)C)C(=O)N[C@@H](CCCNC(=N)N)C(=O)N[C@@H](CC(=O)O)C(=O)N[C@@H](CCCCN)C(=O)O` [DPT-AIF1] (Biotin-KGVIFYLRDK-OH), the “Ability to internalize Streptavidin-HRP conjugated molecules (in words)” value with HeLa cells is “able to internalize Streptavidin-HRP conjugated molecules even more efficiently than the well characterized positive control TAT peptide”.

For `CC[C@H](C)[C@H](NC(=O)[C@@H](NC(=O)CNC(=O)[C@H](CCCCN)NC(=O)CCCC[C@@H]1SC[C@@H]2NC(=O)N[C@@H]21)C(C)C)C(=O)N[C@@H](C)C(=O)N[C@@H](Cc1ccc(O)cc1)C(=O)N[C@@H](CC(C)C)C(=O)N[C@@H](CCCNC(=N)N)C(=O)N[C@@H](CC(=O)O)C(=O)N[C@@H](CCCCN)C(=O)O` [DPT-AIF2] (Biotin-KGVIAYLRDK-OH), the “Ability to internalize Streptavidin-HRP conjugated molecules (in words)” value with HeLa cells is listed as “not DPT-AIF2”.

For “DPT-AIF4: mutated peptide of 8 accessible residues of AIF564–571 containing the F566A mutation (Biotin-VIAYLRDK)”, the “Co-precipitation of PP1c with biotinylated peptide” value in the data set on PP1c [1] was “unable to co-precipitate PP1c”.

Turning to “DPT-APAF1: bi-partite cell penetrating peptide containing APAF-1_122–131 linked to DPT-sh1 peptide shuttle (RPVVFVTRKK; also: linked to DPT-sh1 shuttle peptide, junction not given here; UniProt O14727 122-131, looked up, fragment)”, the PP1c binding result in the data set with PP1c [2] was “PP1-interacting”. Moreover, in data set [3], the Apoptotic effect result is “death molecule”.
